IC50 data for 17 molecules are collected here from patent US9403831B2, “Triazolopyrazine derivative and use thereof” (KOREA RESEARCH INSTITUTE OF CHEMICAL TECHNOLOGY, priority 2013, dated 2016).

For one test, the target named is c-Met enzyme (Homo sapiens (Human), UniProt P08581). As to the kind of experiment: c-Met kinase inhibitory activity (DELFIA time-resolved fluorescence). The test is classed as biochemical. The note with it: c-Met kinase activity reduced to 50%. Here is the method:
The c-Met kinase inhibitory activity was analyzed using dissociation enhanced lanthanide fluoro-immunoassay (DELFIA, Perkin Elmer), which is a kind of time-resolved fluorescence (TRF). […] of the compound prepared in the present invention, as a test compound, was put in a Greiner 96-well V-shaped bottom plate, and a tyrosin kinase buffer ([…]) mixed with a c-Met enzyme was added thereto, and then the enzyme and the test compound were stirred for 15 minutes, followed by culturing. An ATP solution ([…]) was added thereto to proceed with a kinase reaction at room temperature for 30 minutes, and then a 50 mM […] solution (EDTA, […]) was added to stop the reaction. After that, the reaction mixture was transferred to a plate coated with Streptavidin, followed by culturing under shaking. After 2 hours, the cultured material was washed three times with a PBS-T buffer (PBS 0.05% Tween 20).
The europium-labeled anti-phosphotyrosine antibody was diluted to 1:[…] of the diluent was added per well, followed by culturing under shaking. After 1 hour, the cultured material was washed three times with a PBS-T buffer (PBS 0.05% Tween 20).

In test [1] the test system is gastric cancer cell line Hs746T. Description: Cancer cell proliferation inhibitory test (SRB or MTS assay, 72 hours). The note with it: Homo sapiens, cancer cell (Hs746T) proliferation inhibition, culturing with compound for 72 hours. It is filed as cell-based. The method, then: The drug used in the test was diluted to a desired concentration as a test medium, and the final concentration of dimethyl sulfoxide was 0.5% or less.
All the cancer cell lines used in the test originated from the human body, and gastric cancer cell lines Hs746T and MKN-45 were used.
5×10^3 cells of Hs746T were dispensed to each well of the 96-well flat bottom micro-plate. MKN-45 was dispensed at 1×10^4 cells. The cells were cultured for 24 hours, so that the cells adhered to the bottom, and then the culture liquid was removed. The culture liquid containing each of the compounds of the present invention was added, followed by culturing for 72 hours. After the culturing with the compound was completed, the cytotoxicity was measured using protein stain reagent SRB or MTS assay.
Specifically, after the culturing with the compound of the present invention was completed, the cultured liquid was removed. Each well was treated with a cool TCA solution, and allowed to stand at 4° C. for 1 hour to fix cells. The TCA solution was removed, followed by drying at room temperature, and then a stain solution containing 0.4% SRB dissolved in 1% acetic acid solution was added, and then the mixture was allowed to stand for 30 minutes to stain cells. […] The absorbance of each well was measured at a wavelength range of 520 nm using an Eliza reader (micro-plate reader).
The drug cytotoxicity was measured from the OD values for the well added without the drug (C), each well added with the drug (T), and the well initially added with the drug (Tz): [(T−Tz)/(C−Tz)]×100 for […]; or [(T−Tz)/(Tz)]×100 for Tz>T.
The cancer cell inhibitory activity measurement using MTS assay was conducted as follows. Specifically, after the culturing with the compound of the present invention was completed, the PMS solution and MTS solution constituting the CellTiter 96® AQueous Non-Radioactive Cell Proliferation Assay product from Promega Co. were mixed, and 20 μL was put into each well. After the cells were placed in an incubator for 4 hours, and then taken out and allowed to stand at room temperature for 10 minutes.

Where a name gives a salt, the structure may show the parent alone.

c-Met enzyme, sequence (P08581 25-1390): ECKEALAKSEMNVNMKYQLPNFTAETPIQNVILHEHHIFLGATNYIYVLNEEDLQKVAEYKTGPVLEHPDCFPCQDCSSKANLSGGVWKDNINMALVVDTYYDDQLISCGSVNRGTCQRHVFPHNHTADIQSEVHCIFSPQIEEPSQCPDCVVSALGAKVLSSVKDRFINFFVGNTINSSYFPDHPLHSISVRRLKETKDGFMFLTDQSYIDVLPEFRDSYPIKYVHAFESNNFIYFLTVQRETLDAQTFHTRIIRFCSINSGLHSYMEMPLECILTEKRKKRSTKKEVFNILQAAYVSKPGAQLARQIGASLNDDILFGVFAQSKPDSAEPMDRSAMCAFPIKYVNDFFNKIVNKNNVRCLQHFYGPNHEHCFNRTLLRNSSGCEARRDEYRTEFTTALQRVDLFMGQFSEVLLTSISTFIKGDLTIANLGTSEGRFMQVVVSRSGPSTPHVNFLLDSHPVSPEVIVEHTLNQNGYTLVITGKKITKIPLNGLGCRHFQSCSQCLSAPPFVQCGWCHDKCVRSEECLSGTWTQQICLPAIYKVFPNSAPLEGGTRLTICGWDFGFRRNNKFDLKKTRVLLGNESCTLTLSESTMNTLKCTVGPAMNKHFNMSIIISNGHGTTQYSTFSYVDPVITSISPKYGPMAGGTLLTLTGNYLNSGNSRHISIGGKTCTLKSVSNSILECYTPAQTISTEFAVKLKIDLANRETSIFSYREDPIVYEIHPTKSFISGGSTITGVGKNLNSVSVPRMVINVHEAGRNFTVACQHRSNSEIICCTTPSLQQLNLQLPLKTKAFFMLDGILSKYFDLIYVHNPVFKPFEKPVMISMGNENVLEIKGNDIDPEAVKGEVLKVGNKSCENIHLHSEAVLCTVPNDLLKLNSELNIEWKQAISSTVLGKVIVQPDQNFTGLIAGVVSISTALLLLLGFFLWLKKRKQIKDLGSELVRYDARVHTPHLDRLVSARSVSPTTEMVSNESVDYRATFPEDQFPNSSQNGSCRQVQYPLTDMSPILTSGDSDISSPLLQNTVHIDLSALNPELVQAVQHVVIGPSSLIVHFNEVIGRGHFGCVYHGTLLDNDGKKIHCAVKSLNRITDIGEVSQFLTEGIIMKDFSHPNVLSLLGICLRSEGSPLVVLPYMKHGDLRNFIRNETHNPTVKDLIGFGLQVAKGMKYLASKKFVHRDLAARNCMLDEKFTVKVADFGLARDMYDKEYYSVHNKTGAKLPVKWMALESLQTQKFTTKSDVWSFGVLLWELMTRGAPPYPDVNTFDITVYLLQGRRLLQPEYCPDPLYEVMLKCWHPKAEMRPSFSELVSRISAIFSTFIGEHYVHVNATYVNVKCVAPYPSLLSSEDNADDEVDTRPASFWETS

Usually IC50 stands for the concentration needed to halve the response being measured. `CN1CCN(C(=O)c2ccc(-c3cnc(N4CCC[C@H](Cn5nnc6ncc(-c7cnn(C)c7)nc65)C4)nc3)cc2)CC1` [Chemical formula 48, (S)-(4-(2-(3-((6-(1-methyl-1H-pyrazol-4-yl)-1H-[1,2,3]triazolo[4,5-b]pyrazin-1-yl)methyl)piperidin-1-yl)pyrimidin-5-yl)phenyl)(4-methylpiperazin-1-yl)methanone] came in with an IC50 on c-Met enzyme of 6 nM.

Regarding `N#Cc1cccc(-c2cnc3nnn(C[C@@H]4CN(c5ncc(-c6cnn(CCO)c6)cn5)CCO4)c3n2)c1` [Chemical formula 31, (S)-3-(1-((4-(5-(1-(2-hydroxyethyl)-1H-pyrazol-4-yl)pyrimidin-2-yl)morpholin-2-yl)methyl)-1H-[1,2,3]triazolo[4,5-b]pyrazin-6-yl)benzonitrile], the values for the IC50 (in test [1]; on c-Met enzyme) were 0.18 nM and 2 nM, respectively. The matching figures for `Cn1cc(-c2cnc3nnn(CC4CCCN(c5ncc(C6=CCNCC6)cn5)C4)c3n2)cn1` (stereo not drawn) [Chemical formula 33, 6-(1-methyl-1H-pyrazol-4-yl)-1-((1-(5-(1,2,3,6-tetrahydropyridin-4-yl)pyrimidin-2-yl)piperidin-3-yl)methyl)-1H-[1,2,3]triazolo[4,5-b]pyrazinehydrochloride]: 9.5 nM and 3 nM. With `Cn1cc(-c2cnc3nnn(C[C@@H]4CN(c5ncc(OCCN6CCOCC6)cn5)CCO4)c3n2)cn1` [Chemical formula 16, (S)-2-((6-(1-methyl-1H-pyrazol-4-yl)-1H-[1,2,3]triazolo[4,5-b]pyrazin-1-yl)methyl)-4-(5-(2-morpholinoethoxy)pyrimidin-2-yl)morpholine], the IC50 in test [1] was 2.1 nM.

`Cn1cc(-c2cnc3nnn(C[C@@H]4CN(c5ncc(-c6ccc(CN7CCOCC7)c(F)c6)cn5)CCO4)c3n2)cn1` [Chemical formula 42, (S)-4-(5-(3-fluoro-4-(morpholinomethyl)phenyl)pyrimidin-2-yl)-2-((6-(1-methyl-1H-pyrazol-4-yl)-1H-[1,2,3]triazolo[4,5-b]pyrazin-1-yl)methyl)morpholine]: the IC50 against c-Met enzyme came out at 4 nM. On to `Cn1cc(-c2cnc3nnn(CC4CCCN(c5ncc(C6=CCN(CCO)CC6)cn5)C4)c3n2)cn1` (stereo not drawn) [Chemical formula 35, 2-(4-(2-(3-((6-(1-methyl-1H-pyrazol-4-yl)-1H-[1,2,3]triazolo[4,5-b]pyrazine-1-yl)methyl)piperidin-1-yl)pyrimidin-5-yl)-5,6-dihydropyridin-1(2H)-yl)ethanol], for which the IC50 in test [1] stood at 2 nM; on c-Met enzyme, 3 nM. In the case of `Cn1cc(-c2cnc3nnn(C[C@@H]4CN(c5ncc(-c6ccc(CN7CCOCC7)cc6)cn5)CCO4)c3n2)cn1` [Chemical formula 18, (S)-2-((6-(1-methyl-1H-pyrazol-4-yl)-1H-[1,2,3]triazolo[4,5-b]pyrazin-1-yl)methyl)-4-(5-(4-(morpholinomethyl)phenyl)pyrimidin-2-yl)morpholine], the concentration for half-maximal inhibition (IC50) in test [1] amounted to 9.6 nM; against c-Met enzyme, 5 nM.

Regarding `Cn1cc(-c2cnc3nnn(C[C@@H]4CN(c5ncc(-c6cnn(CCO)c6)cn5)CCO4)c3n2)cn1` [Chemical formula 11, (S)-2-(4-(2-(2-((6-(1-methyl-1H-pyrazol-4-yl)-1H-[1,2,3]triazolo[4,5-b]pyrazin-1-yl)methyl)morpholino)pyrimidin-5-yl)-1H-pyrazol-1-yl)ethanol hydrochloride], the IC50 in test [1] worked out at 0.93 nM; against c-Met enzyme, 3 nM. On to `CN1CCN(Cc2ccc(-c3cnc(N4CCO[C@H](Cn5nnc6ncc(-c7cnn(C)c7)nc65)C4)nc3)cc2F)CC1` [Chemical formula 40, (S)-4-(5-(3-fluoro-4-((4-methylpiperazin-1-yl)methyl)phenyl)pyrimidin-2-yl)-2-((6-(1-methyl-1H-pyrazol-4-yl)-1H-[1,2,3]triazolo[4,5-b]pyrazin-1-yl)methyl)morpholine], for which the IC50 against c-Met enzyme is 2 nM. On c-Met enzyme, `CN1CCN(Cc2ccc(-c3cnc(N4CCO[C@H](Cn5nnc6ncc(-c7cccc(C#N)c7)nc65)C4)nc3)cc2)CC1` [Chemical formula 49, (S)-3-(1-((4-(5-(4-((4-methylpiperazin-1-yl)methyl)phenyl)pyrimidin-2-yl)morpholin-2-yl)methyl)-1H-[1,2,3]triazolo[4,5-b]pyrazin-6-yl)benzonitrile] showed an IC50 of 8 nM.

As to `CN1CCN(C(=O)c2ccc(-c3cnc(N4CCO[C@H](Cn5nnc6ncc(-c7cnn(C)c7)nc65)C4)nc3)cc2)CC1` [Chemical formula 47, (S)-(4-(2-(2-((6-(1-methyl-1H-pyrazol-4-yl)-1H-[1,2,3]triazolo[4,5-b]pyrazin-1-yl)methyl)morpholino)pyrimidin-5-yl)phenyl)(4-methylpiperazin-1-yl) methanone], 13 nM corresponded to half-maximal inhibition against c-Met enzyme (IC50). `Cn1cc(-c2cnc3nnn(C[C@@H]4CN(c5ncc(C6=CCNCC6)cn5)CCO4)c3n2)cn1` [Chemical formula 9, (S)-2-((6-(1-methyl-1H-pyrazol-4-yl)-1H-[1,2,3]triazolo[4,5-b]pyrazin-1-yl)methyl)-4-(5-(1,2,3,6-tetrahydropyridin-4-yl)pyrimidin-2-yl)morpholine hydrochloride]: the IC50 in test [1] was 0.95 nM; at c-Met enzyme, 3 nM. Regarding `Cn1cc(-c2cnc3nnn(C[C@@H]4CN(c5ncc(-c6ccc(OCCN7CCOCC7)c(F)c6)cn5)CCO4)c3n2)cn1` [Chemical formula 13, (S)-4-(5-(3-fluoro-4-(2-morpholinoethoxy)phenyl)pyrimidin-2-yl)-2-((6-(1-methyl-1H-pyrazol-4-yl)-1H-[1,2,3]triazolo[4,5-b]pyrazin-1-yl)methyl)morpholine], the concentration for half-maximal inhibition (IC50) worked out at 0.86 nM in test [1] and 15 nM against c-Met enzyme. `CN1CCN(CCOc2ccc(-c3cnc(N4CCO[C@H](Cn5nnc6ncc(-c7cnn(C)c7)nc65)C4)nc3)cc2)CC1` [Chemical formula 15, (S)-2-((6-(1-methyl-1H-pyrazol-4-yl)-1H-[1,2,3]triazolo[4,5-b]pyrazin-1-yl)methyl)-4-(5-(4-(2-(4-methylpiperazin-1-yl)ethoxy)phenyl)pyrimidin-2-yl)morpholine] displayed an IC50 at c-Met enzyme of 6 nM. Take `N#Cc1cc(-c2cnc3nnn(C[C@@H]4CN(c5ncc(C6=CCN(CCO)CC6)cn5)CCO4)c3n2)ccc1F` [Chemical formula 38, (S)-2-fluoro-5-(1-((4-(5-(1-(2-hydroxyethyl)-1,2,3,6-tetrahydropyridin-4-yl)pyrimidin-2-yl)morpholine-2-yl)methyl)-1H-[1,2,3]triazolo[4,5-b]pyrazin-6-yl)benzonitrile]: the half-inhibitory concentration (IC50) against c-Met enzyme was found to be 3 nM. At c-Met enzyme, `CC(=O)N1CCN(Cc2ccc(-c3cnc(N4CCO[C@H](Cn5nnc6ncc(-c7cnn(C)c7)nc65)C4)nc3)cc2)CC1` [Chemical formula 45, (S)-1-(4-(4-(2-(2-((6-(1-methyl-1H-pyrazol-4-yl)-1H-[1,2,3]triazolo[4,5-b]pyrazin-1-yl)methyl)morpholino)pyrimidin-5-yl)benzyl)piperazin-1-yl)ethanone] had an IC50 of 8 nM. The same measure, in the same setting: to `CN1CCN(Cc2ccc(-c3cnc(N4CCO[C@H](Cn5nnc6ncc(-c7ccc(F)c(C#N)c7)nc65)C4)nc3)cc2F)CC1` [Chemical formula 39, (S)-2-fluoro-5-(1-((4-(5-(3-fluoro-4-((4-methylpiperazin-1-yl)methyl)phenyl)pyrimidin-2-yl)morpholine-2-yl)methyl)-1H-[1,2,3]triazolo[4,5-b]pyrazin-6-yl)benzonitrile] belongs 2 nM.
